Blank lines part the entries; values can stand above or below the compound they belong to.
Assays:
α2-adrenergic receptors = assay: α2-adrenoceptor radioligand binding assay ([3H]-clonidine, rat cortex); details: rat cortex tissue, mean ± SEM, n.a. = did not bind at 10^−5 M
Method: (§1) The α1- and α2-adrenoceptor radioligand binding assays were performed on the rat cerebral cortex using previously described methods. […] The brains were homogenized using the ULTRA-TURRAX homogenizer in 10 mL of an ice-cold 50 mM Tris-HCl buffer (pH 7.6). The homogenates were centrifuged at 20,000× g for 20 min (0–4 °C). Subsequently, the cell pellet was resuspended in the Tris–HCl buffer and centrifuged again. Radioligand binding assays were carried out in plates (MultiScreen/Millipore). The final incubation mixture, with a volume of 300 μL, consisted of 240 μL of the tissue suspension, 30 μL of the radioligand solution, and 30 μL of the buffer containing 7–8 concentrations of the studied compounds. In order to measure the unspecific binding, 10 μM phentolamine (for [^3H]-prazosin) or 10 μM clonidine (for [^3H]-clonidine) were utilized. The incubation was completed by rapid filtration through Whatman GF/C filters using a vacuum manifold (Millipore). The filters were then washed twice with the assay buffer and placed in scintillation vials with a liquid scintillation cocktail. Radioactivity was measured in a WALLAC 1409 DSA liquid scintillation counter (Perkin Elmer, USA). All the assays were performed in duplicates, and the inhibitory constants (Ki) were calculated.

α1-adrenergic receptors = assay: α1-adrenoceptor radioligand binding assay ([3H]-prazosin, rat cortex); details: rat cortex tissue, mean ± SEM
Method: as §1

[1] = test system: adrenaline-induced arrhythmia model in rats; assay: Prophylactic antiarrhythmic activity in adrenaline-induced arrhythmia; type: in vivo, rat; details: for Blocks / Bradycardia / Extrasystoles / Mortality: number of animals with event
Method: (§2) The animals were anesthetized with thiopental (75 mg/kg ip). Depending on the model, either adrenaline, aconitine, or calcium chloride was used as an arrhythmogen. Adrenaline and aconitine were administered iv at a dose of 20 µg/kg, whereas calcium chloride was administered at a dose of 140 mg/kg to induce heart rhythm disturbances. The tested compounds were injected iv 15 min before the arrhythmogen. Aspel ASCARD apparatus (standard II lead, with the tape speed 50 mm/s and voltage calibration 1 mV = 1 cm) was used for ECG measurements. […] The ED50 was calculated using the method of Litchfield and Wilcoxon.

[2] = test system: adrenaline-induced arrhythmia model in rats; assay: Therapeutic antiarrhythmic activity in adrenaline-induced arrhythmia; details: 1 mg/kg iv immediately after adrenaline 20 µg/kg; number of animals with event
normal ECG in rats = assay: Effect on a normal electrocardiogram in rats; type: in vivo, rat; details: 5 mg/kg iv; for HR—heart rate / PQ interval / QRS complex / QTc (Bazzett's formula): mean ± SD; for PQ interval / QRS complex / QTc (Bazzett's formula): in ms (unit assumed)
Method: The procedure was performed to exclude the negative effects of the tested compounds on the normal ECG, according to the method described earlier. […] Firstly, animals were anesthetized with thiopental (75 mg/kg ip). […] The influence on PQ, QTc interval, QRS complex, and heart rate was evaluated. The Bazzett’s formula: QTc = QT/√RR was used to calculate QTc. All the studied compounds were administered at a dose of 5 mg/kg.

[3] = test system: pressor response to methoxamine in rats; assay: Influence on blood vasopressor response to methoxamine in rats; type: in vivo, rat; details: 5 mg/kg iv, methoxamine 150 μg/kg before and 5 min after compound
Method: The experiment was performed to establish the effect of the studied derivatives on the pressor response to methoxamine (150 µg/kg, iv), according to the methods described previously. Normotensive Wistar rats were anesthetized with thiopental (75 mg/kg ip). The right carotid artery was cannulated with a polyethylene tube filled with heparin solution using a Datamax apparatus (Columbus Instruments, Columbus, OH, USA). After a 15-min stabilization period, the pressor response to methoxamine before (control) and 5 min after the administration of the tested compounds was measured (Figure 4B). The tested compounds were administered at the lowest hypotensive dose.

[4] = test system: aconitine-induced arrhythmia model in rats; assay: Prophylactic antiarrhythmic activity in aconitine-induced arrhythmia; type: in vivo, rat; details: 5 mg/kg iv 15 min before aconitine 20 μg/kg; number of animals with event
Method: as §2

[5] = test system: calcium chloride-induced arrhythmia model in rats; assay: Prophylactic antiarrhythmic activity in calcium chloride-induced arrhythmia; type: in vivo, rat; details: 5 mg/kg iv 15 min before calcium chloride 140 mg/kg; number of animals with event
Method: as §2

[6] = 0.02 mg/kg iv 15 min before adrenaline 20 μg/kg
[7] = 0.05 mg/kg iv 15 min before adrenaline 20 μg/kg
[8] = 0.1 mg/kg iv 15 min before adrenaline 20 μg/kg
[9] = 0 min (prior to administration)

Adrenergic Receptors—pKi α2 (α2-adrenergic receptors): 8.30 ± 0.01
Compound: Clc1cccc(Cl)c1N=C1NCCN1 [Clonidine, clonidine, reference compound]

Compound: COc1ccccc1N1CCN(CCCCOc2ccccc2C(N)=O)CC1.Cl [JJGW07, 2-{4-[4-(2-metoxyphenyl)piperazin-1-ylo]butoxy}benzamide hydrochloride]
Adrenergic Receptors—pKi α1 (α1-adrenergic receptors): 7.85 ± 0.01
Blocks [1, 6]: 6/6
Bradycardia [1, 6]: 6/6
Extrasystoles [1, 6]: 5/6
Mortality [1, 6]: 3/6
Blocks [1, 7]: 4/6
Bradycardia [1, 7]: 4/6
Extrasystoles [1, 7]: 5/6
Mortality [1, 7]: 0/6
Blocks [1, 8]: 3/6
Bradycardia [1, 8]: 3/6
Extrasystoles [1, 8]: 4/6
Mortality [1, 8]: 0/6
ED50 value lower than that of carvedilol ([1]; adrenaline-induced arrhythmia, prophylactic, carvedilol ref 62): 9 fold
ED50 ([1]; prophylactic, iv 15 min before adrenaline 20 μg/kg, confidence limits in brackets (Litchfield and Wilcoxon)): 0.04 (0.01–0.15) mg/kg
Blocks [2]: 2/5
Bradycardia [2]: 1/5
Mortality [2]: 0/5
effect on the heart rate during the ECG recording (normal ECG in rats): did not affect the heart rate
HR—heart rate (normal ECG in rats; [9]): 328.7 ± 9.3
PQ interval (normal ECG in rats; [9]): 40.7 ± 2.1
QRS complex (normal ECG in rats; [9]): 47.0 ± 6.3
QTc (Bazzett's formula) (normal ECG in rats; [9]): 196.5 ± 8.0
HR—heart rate (normal ECG in rats; 5 min): 341.2 ± 11.5
PQ interval (normal ECG in rats; 5 min): 40.0 ± 2.2
QRS complex (normal ECG in rats; 5 min): 49.7 ± 7.9
QTc (Bazzett's formula) (normal ECG in rats; 5 min): 190.8 ± 4.2
HR—heart rate (normal ECG in rats; 10 min): 333.2 ± 20.9
PQ interval (normal ECG in rats; 10 min): 40.7 ± 3.7
QRS complex (normal ECG in rats; 10 min): 48.7 ± 7.2
QTc (Bazzett's formula) (normal ECG in rats; 10 min): 196.3 ± 9.5
HR—heart rate (normal ECG in rats; 15 min): 336.3 ± 20.9
PQ interval (normal ECG in rats; 15 min): 40.7 ± 1.6
QRS complex (normal ECG in rats; 15 min): 48.7 ± 9.2
QTc (Bazzett's formula) (normal ECG in rats; 15 min): 192.4 ± 7.5
attenuation of the methoxamine pressor response [3]: 100%
Blocks [4]: 6/6
Bradycardia [4]: 6/6
Extrasystoles [4]: 6/6
Fibrillations [4]: 6/6
Mortality [4]: 6/6
Blocks [5]: 6/6
Bradycardia [5]: 6/6
Extrasystoles [5]: 6/6
Fibrillations [5]: 6/6
Mortality [5]: 6/6

Adrenergic Receptors—pKi α1 (α1-adrenergic receptors): 8.05 ± 0.01
Compound: Cc1ccc(N(CC2=NCCN2)c2cccc(O)c2)cc1 [Phentolamine, phentolamine, reference compound]

Source: publication PMC9820316, “Novel Arylpiperazine Derivatives of Salicylamide with α1-Adrenolytic Properties Showed Antiarrhythmic and Hypotensive Properties in Rats” (International Journal of Molecular Sciences, 2022)
